# Assay results: patent US20070021456A1, “Aminobenzimidazole derivatives” (MERCK PATENT GMBH, priority 2003, published 2007)
# Target: Tie-2 kinase (Homo sapiens, UniProt Q02763)
# Experiment: TIE-2 kinase flashplate assay (phosphorylation of poly(Glu, Tyr) with 33P-ATP)
# Type: biochemical
# Details: read-out: Inhibition of TIE-2 IC50
# Procedure: The assay determines the inhibiting activity of the substances to be tested in the phosphorylation of the substrate poly(Glu, Tyr) by Tie-2 kinase in the presence of radioactive ^33P-ATP. The phosphorylated substrate binds to the surface of a “flashplate” microtitre plate during the incubation time. After removal of the reaction mixture, the microtitre plate is washed a number of times and the radioactivity on its surface is subsequently measured. An inhibiting effect of the substances to be measured results in lower radioactivity compared with an undisturbed enzymatic reaction.
# Sequence of Tie-2 kinase (Q02763 23-1124): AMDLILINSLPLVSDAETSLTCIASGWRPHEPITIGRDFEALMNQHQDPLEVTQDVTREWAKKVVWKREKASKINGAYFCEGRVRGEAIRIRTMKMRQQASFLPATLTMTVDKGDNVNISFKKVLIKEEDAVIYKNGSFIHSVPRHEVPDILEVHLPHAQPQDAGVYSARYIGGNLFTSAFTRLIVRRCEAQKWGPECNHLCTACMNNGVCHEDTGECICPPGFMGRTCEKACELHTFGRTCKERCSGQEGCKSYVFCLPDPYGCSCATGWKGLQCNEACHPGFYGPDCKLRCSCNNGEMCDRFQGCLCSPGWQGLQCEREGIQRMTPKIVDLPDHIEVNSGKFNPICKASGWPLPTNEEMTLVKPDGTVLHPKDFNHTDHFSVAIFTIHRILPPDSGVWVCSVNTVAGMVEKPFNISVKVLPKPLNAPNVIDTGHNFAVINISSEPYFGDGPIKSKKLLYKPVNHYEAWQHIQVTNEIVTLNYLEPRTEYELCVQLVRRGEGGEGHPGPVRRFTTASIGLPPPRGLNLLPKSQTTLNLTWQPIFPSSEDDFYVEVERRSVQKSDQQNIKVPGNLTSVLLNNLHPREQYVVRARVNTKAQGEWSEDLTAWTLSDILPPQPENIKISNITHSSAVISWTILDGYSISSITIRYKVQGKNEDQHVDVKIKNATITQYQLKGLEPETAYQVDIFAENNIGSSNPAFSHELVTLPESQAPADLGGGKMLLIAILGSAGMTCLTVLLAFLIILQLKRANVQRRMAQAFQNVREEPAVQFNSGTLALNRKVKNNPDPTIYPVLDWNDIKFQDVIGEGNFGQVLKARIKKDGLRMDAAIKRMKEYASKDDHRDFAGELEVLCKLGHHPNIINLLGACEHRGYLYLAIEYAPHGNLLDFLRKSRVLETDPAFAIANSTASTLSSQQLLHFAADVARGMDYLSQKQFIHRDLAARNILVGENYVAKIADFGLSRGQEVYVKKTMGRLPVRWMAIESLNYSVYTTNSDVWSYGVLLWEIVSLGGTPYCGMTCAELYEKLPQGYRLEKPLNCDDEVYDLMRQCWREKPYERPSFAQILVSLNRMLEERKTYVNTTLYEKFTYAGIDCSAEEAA
row,SMILES,IC50 [nM]
1,"FC(F)(F)c1cc(Br)c2nc(Nc3ccc(Oc4ccc5nsnc5c4)cc3)[nH]c2c1 [A1, [4-(benzo-1,2,5-thiadiazol-5-yloxy)phenyl](4-bromo-6-trifluoromethyl-1H-benzimidazol-2-yl)amine]",220
2,FC(F)(F)c1cc(Cl)c2nc(Nc3ccc(Oc4ccc5nsnc5c4)cc3)[nH]c2c1 [No. 2],250
3,Cc1cc(Oc2ccc(Nc3nc4c(Br)cc(C(F)(F)F)cc4[nH]3)cc2)c(C)c2sc(N)nc12 [No. 31],390
4,Nc1nc2ccc(Oc3ccc(Nc4nc5cc(C(F)(F)F)cc(Cl)c5[nH]4)cc3)cc2s1 [No. 38],320
